# Test results published in US10745397B2, “1-Substituted 1,2,3,4-tetrahydro-1,7-naphthyridin-8-amine derivatives and their use as EP4 receptor antagonists” (TAKEDA PHARMACEUTICAL COMPANY LIMITED, priority 2015, dated 2020).
# Key:
# human EP4 receptor = target: T1, human EP4 receptor (Homo sapiens, UniProt P35408); test: hEP4 radioligand binding assay ([3H] PGE2 competitive binding, membrane fractions); conditions: 300 nM compound; 1 nM [3H] PGE2
# T1 construct: expressed in transfected cells; host or cells: FreeStyle293 (HEK293F) cells, transient transfection with pcDNA3.1(+), total membrane fraction
# T1 sequence (P35408 whole entry): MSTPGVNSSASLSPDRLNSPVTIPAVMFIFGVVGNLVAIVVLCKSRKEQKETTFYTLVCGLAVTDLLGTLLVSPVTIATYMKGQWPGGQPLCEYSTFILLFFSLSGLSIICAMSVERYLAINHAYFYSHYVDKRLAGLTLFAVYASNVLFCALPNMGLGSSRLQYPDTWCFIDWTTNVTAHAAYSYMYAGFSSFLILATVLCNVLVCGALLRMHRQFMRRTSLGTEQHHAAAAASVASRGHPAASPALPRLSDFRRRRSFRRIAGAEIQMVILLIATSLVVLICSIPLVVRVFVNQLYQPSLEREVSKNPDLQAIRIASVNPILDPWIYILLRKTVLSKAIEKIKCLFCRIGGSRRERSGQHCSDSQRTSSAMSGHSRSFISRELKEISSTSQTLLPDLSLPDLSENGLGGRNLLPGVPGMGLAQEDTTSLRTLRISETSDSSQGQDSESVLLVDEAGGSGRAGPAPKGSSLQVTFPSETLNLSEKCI
# Method in brief: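 Membranes from FreeStyle293 (HEK293F) cells transiently expressing full-length human EP4; 10 μg protein incubated with compound and 1 nM [3H]PGE2 in 50 mM Tris-HCl pH 6.0, 10 mM MgCl2, 0.5 mM EDTA, 1% DMSO, 2 h at room temperature. Nonspecific binding with 10 μM unlabeled PGE2; filtration and scintillation counting; Ki by one-site fit.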
# [1] = target: T2, hEP4 (C6 glioma cells overexpressing hEP4) (Homo sapiens, UniProt P35408); test: hEP4 cell based assay (cAMP), inhibition of PGE2 induced cAMP, HTRF; conditions: 1 μM compound, PGE2 at EC80
# T2 construct: host or cells: C6 glioma cells overexpressing hEP4
# T2 sequence (P35408 whole entry): as above
# Method in brief: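 C6 glioma cells overexpressing hEP4 were pre-incubated 15 min with compound plus IBMX and Ro 20-1724 (each […]), then stimulated 30 min with PGE2 at EC80; 1% DMSO. cAMP was read by competitive HTRF (665/620 nm); IC50 came from non-linear regression, with agonist-only as 0% and no-agonist as 100% inhibition.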
# [2] = test system: Adjuvant Induced Arthritis (AIA) Model in Female Lewis Rats; test: Suppression of arthritis development in adjuvant induced arthritis (AIA) model, arthritis score; format: in vivo, rat; conditions: PO; for % reduction in arthritis score: day 14 to day 23, compared to vehicle treatment at end of study period; for ED50: Rattus norvegicus, BID, female Lewis rats
# Procedure: Adjuvant arthritis was induced on day 1 in female Lewis rats (10-12 weeks) by intradermal injection of heat killed Mycobacterium tuberculosis in complete freund's adjuvant (CFA) intradermally (Mycobacterium tuberculosis 100 mg in 5 mL incomplete freunds adjuvant, 200 μL per rat). Animals were randomized into different treatment groups, each group consist of 8 animals based on clinical scores on day 14. The animals in control group were given CFA and in second control group were administered with CFA and vehicle (1% Tween-80+0.5% CMC, quantity sufficient, 3 ml/kg, PO), where as animals in experimental groups were treated with CFA and EP4 antagonist (Example B2 and Example B4) in therapeutic fashion orally twice a day (BID) from day 14 to day 23 at 0.1, 0.3, 1, 3, 10 and 30 mg/kg doses.
# Animals were evaluated for clinical symptoms and scored accordingly for inflamed paws and erythema. The scorer was blind to the treatment groups. Key findings for example B2 (Refer FIG. 1) and B4 (Refer FIG. 2) in rat arthritis model are as follows.
Structure (SMILES),inhibition at 0.3 µM (human EP4 receptor) [%],inhibition at 1 µM [1] [%],% reduction in arthritis score ([2]; 0.1 mg/kg BID) [%],% reduction in arthritis score ([2]; 0.3 mg/kg BID) [%],% reduction in arthritis score ([2]; 1 mg/kg BID) [%],% reduction in arthritis score ([2]; 3 mg/kg BID) [%],% reduction in arthritis score ([2]; 10 mg/kg BID) [%],% reduction in arthritis score ([2]; 30 mg/kg BID) [%],ED50 [2] [mg/kg]
"O=C(O)c1ccc(C2(Nc3nccc4c3N(Cc3ccc(F)c(F)c3)CCO4)CC2)cc1 [Example B4, 4-[1-[[4-[(3,4-Difluorophenyl)methyl]-2,3-dihydropyrido[4,3-b][1,4]oxazin-5-yl]amino]cyclopropyl]benzoic acid]",83,97,3,4,27,39,51,55,8.8
"C[C@H](Nc1nccc2c1N(Cc1cccc(Cl)c1)CCO2)c1ccc(C(=O)O)cc1 [Example B2, 4-[(1S)-1-[[4-[(3-Chlorophenyl)methyl]-2,3-dihydropyrido[4,3-b][1,4]oxazin-5-yl]amino]ethyl]benzoic acid]",98,100,23,45,46,67,68,71,0.76
"C[C@H](Nc1nccc2c1N(Cc1ccc(F)c(F)c1)CCC2)c1ccc(C(=O)O)cc1 [Example B44, 4-[(1S)-1-[[1-[(3,4-difluorophenyl)methyl]-3,4-dihydro-2H-1,7-naphthyridin-8-yl]amino]ethyl]benzoic acid]",93,92,–,–,–,–,–,–,–
"O=C(O)c1ccc(C2(Nc3nccc4c3N(Cc3ccc(Cl)cc3)CCO4)CC2)cc1 [Example B19, 4-[1-[[4-[(4-chlorophenyl)methyl]-2,3-dihydropyrido[4,3-b][1,4]oxazin-5-yl]amino]cyclopropyl]benzoic acid]",92,81,–,–,–,–,–,–,–
"C[C@H](Nc1nccc2c1N(Cc1ccc(C(F)(F)F)cc1)CCO2)c1ccc(C(=O)NOCc2ccccc2)cc1 [Example D5, N-benzyloxy-4-[(1S)-1-[[4-[[4-(trifluoromethyl)phenyl]methyl]-2,3-dihydropyrido[4,3-b][1,4]oxazin-5-yl]amino]ethyl]benzamide]",88,90,–,–,–,–,–,–,–
"C[C@H](Nc1nccc2c1N(Cc1cc(F)cc(F)c1)CCO2)c1ccc(C(=O)O)cc1 [Example B13, 4-[(1S)-1-[[4-[(3,5-difluorophenyl)methyl]-2,3-dihydropyrido[4,3-b][1,4]oxazin-5-yl]amino]ethyl]benzoic acid]",92,100,–,–,–,–,–,–,–
"C[C@H](Nc1nccc2c1N(Cc1ccc3ccccc3c1)CCO2)c1ccc(C(=O)O)cc1 [Example B29, 4-[(1S)-1-[[4-(2-naphthylmethyl)-2,3-dihydropyrido[4,3-b][1,4]oxazin-5-yl]amino]ethyl]benzoic acid]",100,96,–,–,–,–,–,–,–
"O=C(O)c1ccc(C2(Nc3nccc4c3N(Cc3ccccc3)CCO4)CC2)cc1 [Example B22, 4-[1-[(4-benzyl-2,3-dihydropyrido[4,3-b][1,4]oxazin-5-yl)amino]cyclopropyl]benzoic acid]",80,90,–,–,–,–,–,–,–
"C[C@H](Nc1nccc2c1N(Cc1cccc(F)c1)CCO2)c1ccc(C(=O)O)cc1 [Example B8, 4-[(1S)-1-[[4-[(3-fluorophenyl)methyl]-2,3-dihydropyrido[4,3-b][1,4]oxazin-5-yl]amino]ethyl]benzoic acid]",97,100,–,–,–,–,–,–,–
"CONC(=O)c1ccc([C@H](C)Nc2nccc3c2N(Cc2ccc(C(F)(F)F)cc2)CCO3)cc1 [Example D2, N-Methoxy-4-[(1S)-1-[[4-[[4-(trifluoromethyl)phenyl]methyl]-2,3-dihydropyrido[4,3-b][1,4]oxazin-5-yl]amino]ethyl]benzamide]",87,92,–,–,–,–,–,–,–
